Where two headings read alike, the source gives them in different places. One block for each molecule: values may come before it.
Assays:
MES-SA cells = experiment: MTT growth inhibition, MES-SA uterine sarcoma; type: cell-based; conditions: Homo sapiens; parent MES-SA cells at start of selection of doxorubicin-resistant cells; read-out: GI50 concentration
Procedure: (§1) Human cancer cell lines were obtained from the American Type Culture Collection (ATCC, Manassas, Va., USA), the European Collection of Cell Culture (ECACC, Salisbury, UK), and the Deutsche Sammlung von Mikroorganismen und Zellkulturen (DSMZ, Braunschweig, Germany). Human cervical adenocarcinoma HeLa cells were cultured in DMEM supplemented with 10% fetal bovine serum (FBS). Human mammary carcinoma MCF-7 cells were cultured in RPMI supplemented with 10% FBS. The U87 cells (ATCC HTB-14) were cultured in DMEM culture medium, while the A549 cells (DSMZ ACC107) were cultured in RPMI culture medium supplemented with 10% heat-inactivated FBS. The GBM Hs683 (ATCC HTB-138) and the T98G (ATCC CRL-1690) cell lines were cultivated in DMEM supplemented with 10% FBS. The GBM U251 cells (ECACC code 09063001) were cultured in 10% MEM. The human uterine sarcoma MES-SA and MES-SA/Dx5 cells were cultured in RPMI-1640 medium supplemented with 10% FBS with MES SA/Dx5 maintained in the presence of 500 nM Doxorubicin (Sigma™). The U373 glioblastoma cells (ECACC 08061901) were cultured in RPMI culture medium supplemented with 10% heat-inactivated FBS.
All compounds were dissolved in DMSO at a concentration of either 100 mM or 50 mM prior to cell treatment. The cells were trypsinized and seeded at various cell concentrations depending on the cell type. The cells were grown for 24 h to 72 h, treated with compounds at concentrations ranging from 0.001 to 100 μM, and incubated for 48, 72, or 96 h in 100 or 200 μL media depending on the cell line used. Cells treated with 0.1% DMSO were used as a negative control, and cells treated with 1 μM phenyl arsine oxide (PAO) were used as a positive control. […]
(§2) Drug-resistant cell lines (i.e., glioma: Hs683, U373, U251, U87, T98G; lung cancer: A549, H2073; uterine carcinoma: MES-SA/Dx5) were complemented with drug-sensitive cell lines, H1993 lung cancer and MES-SA uterine cancer, which were used as controls. […] The GI50 values were calculated after 48-96 hours of treatment with the indicated compounds in replicate using the MTT growth assay.

GBM 090909 cells = experiment: MTT growth inhibition, primary GBM-derived neurosphere culture GBM 090909; type: cell-based; conditions: Homo sapiens, Table 3, 48-96 h treatment, read-out: GI50 in vitro values, glioma GBM 090909
Procedure: (§3) Cell culture media were supplemented with 4 mM glutamine (Lonza code BE17-605E), 100 μg/mL gentamicin (Lonza code 17-5182), and penicillin-streptomycin (200 units/ml and 200 μg/ml) (Lonza code 17-602E). Primary GBM-derived neurosphere cultures from a patient undergoing surgical debulking were established using previously described methods. Briefly, resected tumor tissue was minced with a sterile scalpel and dissociated in 3 mL of neurobasal (NB) media containing 100 U/mL of collagenase (Life Technologies™) for 30 minutes at 37° C. Dissociated tissue was then vortexed and filtered using a sterile 70 um nylon Falcon™ cell strainer (Corning™). […]
(§4) Compound 4l was evaluated for in vitro growth inhibition against a panel of cancer cell lines, including U373, U251, U87, T98G, human GBM, and A549 NSCLC. […] Compound 4l was also evaluated for in vitro growth inhibition against the apoptosis-sensitive tumor model Hs683 anaplastic oligodendroglioma as a reference.

GBM 031810 cells = experiment: MTT growth inhibition, primary GBM-derived neurosphere culture GBM 031810; type: cell-based; conditions: Homo sapiens, Table 3, 48-96 h treatment, read-out: GI50 in vitro values, glioma GBM 031810
Procedure: as §3, §4

A549 cells = experiment: MTT growth inhibition, A549 NSCLC; type: cell-based, human; conditions: 48 hours, up to 100 μM, FIGS. 4-7
Procedure: as §1
(§5) All compounds were dissolved in DMSO at a concentration of either 100 mM or 50 mM prior to cell treatment. The cells were trypsinized and seeded at various cell concentrations depending on the cell type. The cells were grown for 24 h to 72 h, treated with compounds at concentrations ranging from 0.001 to 100 μM, and incubated for 48, 72, or 96 h in 100 or 200 μL media depending on the cell line used. Cells treated with 0.1% DMSO were used as a negative control, and cells treated with 1 μM phenyl arsine oxide (PAO) were used as a positive control.
as §2
Compounds 5l and 5g were further tested using the A549 lung cancer cell line to determine a dose-response effect on apoptosis-resistant cells. (FIGS. 4-7). […] The MTT assay was performed in four replicates after 48 hours of treatment with the indicated compounds relative to a DMSO control.

H2073 cells = experiment: MTT growth inhibition, H2073 drug-resistant NSCLC; type: cell-based, human; conditions: Homo sapiens, NCI-H2073, MTT
Procedure: NSCLC cell lines H1993 and H2073 were obtained from the Hamon Center for Therapeutic Oncology Research at UT Southwestern Medical Center and cultured in RPMI-1640 medium (Mediatech, VA, USA) supplemented with 5% heat-inactivated FBS (Mediatech™), 100 units/mL penicillin and 0.1 mg/mL streptomycin (Sigma™). All cell lines were cultured in T25 flasks, maintained, and grown at 37° C., 95% humidity, 5% CO2.
as §5
Spirodienone 4l was evaluated against patient-derived NSCLC cell line H1993 and its drug-resistant variant, H2073. The patient-derived NSCLC cell line […] was obtained from a regrown tumor at a primary site after a patient relapsed several months later.
(§6) Due to their high potencies, compounds 5l and 5g were used to determine the effects of the compounds on drug-resistant tumor cells. Drug-resistant cell lines (i.e., glioma: Hs683, U373, U251, U87, T98G; lung cancer: A549, H2073; uterine carcinoma: MES-SA/Dx5) were complemented with drug-sensitive cell lines, H1993 lung cancer and MES-SA uterine cancer, which were used as controls. Bulbispermine and paclitaxel were also used as controls. The GI50 values were calculated after 48-96 hours of treatment with the indicated compounds in replicate using the MTT growth assay.
Compound 5l was further tested to determine the effect of compounds of the invention on drug-resistant tumor cells. A patient-derived non-small cell lung cancer (NSCLC) line, H1993, and the drug-resistant variant of H1993, H2073, were used for testing. The H1993 cell line was obtained from a lymph node metastasis isolated from the patient prior to chemotherapy. The H2073 cell line was derived from a regrown tumor at the primary site after the patient had relapsed several months after administration of the chemotherapy regimen.

MES-SA/Dx5 cells = experiment: MTT growth inhibition, MDR uterine sarcoma MES-SA/Dx5; type: cell-based, human; conditions: Homo sapiens, MES-SA/Dx5, MTT
Procedure: as §1, §5
Compound 4l was also evaluated against the MDR uterine sarcoma cell line (MES-SA/Dx5 to evaluate whether the compounds of the invention were substrates for the MDR cancer efflux systems. The MES-SA/Dx5 cell line was established from the parent uterine sarcoma MES-SA, grown in the presence of increasing concentrations of doxorubicin and is known to be resistant to a number of P-gp substrates.
The selection of doxorubicin-resistant cells (MES-SA/Dx5 cell line) was performed by splitting the cells and allowing the cells to adhere overnight. The next day, the cells were initially exposed to a DOX concentration of 100 nM, which represented the GI50 concentration. The cells were maintained at this DOX concentration until their growth rate reached that of the untreated cells. The DOX concentration was then increased in two-fold increments following the same growth criteria at each concentration to a final DOX concentration of 500 nM. Each new DOX concentration required approximately 2 passages to reach the growth rate of the untreated cells.
as §6

Hs683 cells = experiment: MTT growth inhibition, Hs683 glioma; type: cell-based, human
Procedure: as §1, §5, §4, §6

U373 glioblastoma cells = experiment: MTT growth inhibition, U373 glioma; type: cell-based, human
Procedure: as §1, §5, §4, §6

U251 cells = experiment: MTT growth inhibition, U251 glioma; type: cell-based, human
Procedure: as §1, §5, §4, §6

U87 cells = experiment: MTT growth inhibition, U87 glioma; type: cell-based, human
Procedure: as §1, §5, §4, §6

T98G cells = experiment: MTT growth inhibition, T98G glioma; type: cell-based, human
Procedure: as §1, §5, §4, §6

GI50 (MES-SA cells): 0.1 µM
Compound: COc1cccc2c1C(=O)c1c(O)c3c(c(O)c1C2=O)C[C@@](O)(C(=O)CO)C[C@@H]3O[C@H]1C[C@H](N)[C@H](O)[C@H](C)O1 [DOX, doxorubicin, reference compound]

Compound: Cn1nnc2c(C(N)=O)ncn2c1=O [TMZ, temozolomide, reference compound]
GI50 (GBM 090909 cells): 50 µM | GI50 (GBM 031810 cells): > 1000 µM

GI50 (H2073 cells; Table 3, 48-96 h treatment, read-out: GI50 in vitro values, lung cancer H2073): 2.4 µM | GI50 (H2073 cells; Table 5, 48-96 hours of treatment, read-out: GI50, Lung Cancer H2073): 2.4 µM | GI50 (MES-SA/Dx5 cells; Table 3, 48-96 h treatment, read-out: GI50 in vitro values, uterine sarcoma MES-SA/Dx5): 10 µM | GI50 (MES-SA/Dx5 cells; Table 5, 48-96 hours of treatment, read-out: GI50, Sarcoma MES-SA/Dx5): 10 µM
Compound: CC(=O)O[C@H]1C(=O)[C@@]2(C)[C@H]([C@H](OC(=O)c3ccccc3)[C@]3(O)C[C@H](OC(=O)[C@H](O)[C@@H](NC(=O)c4ccccc4)c4ccccc4)C(C)=C1C3(C)C)[C@]1(OC(C)=O)CO[C@@H]1C[C@@H]2O [paclitaxel, reference compound]
anti-proliferative activity, dose-response (absorbance at 595 nm) (A549 cells): did not display such potent anti-proliferative activity

GI50 (Hs683 cells; Table 3, 48-96 h treatment, read-out: GI50 in vitro values, glioma Hs683): 27 µM | GI50 (Hs683 cells; Table 5, 48-96 hours of treatment, read-out: GI50, Glioma Hs683): 27 µM | GI50 (U373 glioblastoma cells; Table 3, 48-96 h treatment, read-out: GI50 in vitro values, glioma U373): 53 µM | GI50 (U373 glioblastoma cells; Table 5, 48-96 hours of treatment, read-out: GI50, Glioma U373): 53 µM | GI50 (U251 cells; Table 3, 48-96 h treatment, read-out: GI50 in vitro values, glioma U251): 41 µM | GI50 (U251 cells; Table 5, 48-96 hours of treatment, read-out: GI50, Glioma U251): 41 µM | GI50 (U87 cells; Table 3, 48-96 h treatment, read-out: GI50 in vitro values, glioma U87): 38 µM | GI50 (U87 cells; Table 5, 48-96 hours of treatment, read-out: GI50, Glioma U87): 38 µM | GI50 (T98G cells; Table 3, 48-96 h treatment, read-out: GI50 in vitro values, glioma T98G): 99 µM | GI50 (T98G cells; Table 5, 48-96 hours of treatment, read-out: GI50, Glioma T98G): 99 µM
Compound: O[C@H]1C=C[C@@]23c4cc5c(cc4CN(C[C@@H]2O)[C@H]3C1)OCO5 [bulbispermine, reference compound]

Source: patent publication US10414778B2, “Methods for treatment of resistant cancer” (New Mexico Tech University Research Park Corporation, priority 2016, dated 2019)
